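Test compounds were applied to cells in 96-well plates for 48 hours at 5 doses. GI50 is the concentration that inhibits growth by half.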 The source made the active and inactive calls. Cut-off read from the data, not from the text of the source: active = GI50 up to about 1.1 µM and inactive = higher.
Legend:
Experiment in all cases: NCI tumour cell line growth inhibition, 48 h
HOP-62 = system: HOP-62
LOX IMVI = system: LOX IMVI
NCI-H522 = system: NCI-H522
SF-268 = system: SF-268
ACHN = system: ACHN
SNB-19 = system: SNB-19
CAKI-1 = system: CAKI-1
HCT-15 = system: HCT-15
UACC-257 = system: UACC-257
RPMI-8226 = system: RPMI-8226
Malme-3M = system: Malme-3M
MDA-N = system: MDA-N
UO-31 = system: UO-31
SN12C = system: SN12C
M14 = system: M14
SF-295 = system: SF-295
786-0 = system: 786-0
KM12 = system: KM12
OVCAR-5 = system: OVCAR-5

Compound: Cc1nc(O)c(O)c(CN2CCCCC2)n1
- GI50 (HOP-62): > 100 µM (inactive)
- GI50 (LOX IMVI): > 100 µM (inactive)
- GI50 (NCI-H522): > 100 µM (inactive)
- GI50 (SF-268): > 100 µM (inactive)
- GI50 (ACHN): > 100 µM (inactive)
- GI50 (SNB-19): > 100 µM (inactive)
- GI50 (CAKI-1): > 100 µM (inactive)
- GI50 (HCT-15): > 100 µM
- GI50 (UACC-257): > 100 µM (inactive)
- GI50 (RPMI-8226): > 100 µM (inactive)
- GI50 (Malme-3M): > 100 µM (inactive)
- GI50 (MDA-N): > 100 µM (inactive)
- GI50 (UO-31): > 100 µM (inactive)
- GI50 (SN12C): > 100 µM (inactive)
- GI50 (M14): > 100 µM (inactive)
- GI50 (SF-295): > 100 µM (inactive)
- GI50 (786-0): > 100 µM (inactive)
- GI50 (KM12): > 100 µM (inactive)
- GI50 (OVCAR-5): > 100 µM (inactive)

Compound: Cc1cccc(C[C@@]2(SCc3ccccc3)C(C)(C)[C@@H]3CC[C@@]2(C)C3)n1
- GI50 (HOP-62): 23.4 µM (inactive)
- GI50 (LOX IMVI): 16.6 µM (inactive)
- GI50 (NCI-H522): 14.3 µM (inactive)
- GI50 (SF-268): 16.1 µM (inactive)
- GI50 (ACHN): 15.5 µM (inactive)
- GI50 (SNB-19): 16.3 µM (inactive)
- GI50 (CAKI-1): 16.7 µM (inactive)
- GI50 (HCT-15): 13.8 µM
- GI50 (UACC-257): 14.1 µM (inactive)
- GI50 (RPMI-8226): 11.8 µM (inactive)
- GI50 (Malme-3M): 15.5 µM (inactive)
- GI50 (MDA-N): 24.5 µM (inactive)
- GI50 (UO-31): 19.4 µM (inactive)
- GI50 (SN12C): 16.3 µM (inactive)
- GI50 (M14): 14.7 µM (inactive)
- GI50 (SF-295): 14 µM (inactive)
- GI50 (786-0): 17.6 µM (inactive)
- GI50 (KM12): 16.4 µM (inactive)
- GI50 (OVCAR-5): 18 µM (inactive)

Compound: CCC1(CC)C(=O)N(C(=O)c2cc(OC)c(OC)c(OC)c2)N(C(=O)c2cc(OC)c(OC)c(OC)c2)C1=O
- GI50 (HOP-62): > 50 µM (inactive)
- GI50 (LOX IMVI): > 50 µM (inactive)
- GI50 (NCI-H522): > 50 µM (inactive)
- GI50 (SF-268): > 50 µM (inactive)
- GI50 (ACHN): > 50 µM (inactive)
- GI50 (SNB-19): > 50 µM (inactive)
- GI50 (CAKI-1): > 50 µM (inactive)
- GI50 (HCT-15): > 50 µM
- GI50 (UACC-257): > 50 µM (inactive)
- GI50 (RPMI-8226): > 50 µM (inactive)
- GI50 (Malme-3M): > 50 µM (inactive)
- GI50 (MDA-N): > 50 µM (inactive)
- GI50 (UO-31): > 50 µM (inactive)
- GI50 (SN12C): 21.8 µM (inactive)
- GI50 (M14): > 50 µM (inactive)
- GI50 (SF-295): 24.8 µM (inactive)
- GI50 (786-0): > 50 µM (inactive)
- GI50 (KM12): > 50 µM (inactive)
- GI50 (OVCAR-5): > 50 µM (inactive)

Compound: Cc1nc2c(=O)n(C)c(=O)nc-2n(CCO)c1C
- GI50 (HOP-62): > 100 µM (inactive)
- GI50 (LOX IMVI): > 100 µM (inactive)
- GI50 (NCI-H522): > 100 µM (inactive)
- GI50 (SF-268): > 100 µM (inactive)
- GI50 (ACHN): > 100 µM (inactive)
- GI50 (SNB-19): > 100 µM (inactive)
- GI50 (CAKI-1): > 100 µM (inactive)
- GI50 (HCT-15): > 100 µM
- GI50 (UACC-257): > 100 µM (inactive)
- GI50 (RPMI-8226): > 100 µM (inactive)
- GI50 (Malme-3M): > 100 µM (inactive)
- GI50 (MDA-N): > 100 µM (inactive)
- GI50 (UO-31): > 100 µM (inactive)
- GI50 (SN12C): > 100 µM (inactive)
- GI50 (M14): > 100 µM (inactive)
- GI50 (SF-295): > 100 µM (inactive)
- GI50 (786-0): > 100 µM (inactive)
- GI50 (KM12): > 100 µM (inactive)
- GI50 (OVCAR-5): > 100 µM (inactive)

Compound: CC(C)C(Sc1nc(N)nc2nc[nH]c12)C(=O)O (centres undefined)
- GI50 (HOP-62): > 100 µM (inactive)
- GI50 (LOX IMVI): > 100 µM (inactive)
- GI50 (NCI-H522): > 100 µM (inactive)
- GI50 (SF-268): > 100 µM (inactive)
- GI50 (ACHN): > 100 µM (inactive)
- GI50 (SNB-19): > 100 µM (inactive)
- GI50 (CAKI-1): > 100 µM (inactive)
- GI50 (HCT-15): > 100 µM
- GI50 (UACC-257): > 100 µM (inactive)
- GI50 (RPMI-8226): > 100 µM (inactive)
- GI50 (Malme-3M): > 100 µM (inactive)
- GI50 (MDA-N): > 100 µM (inactive)
- GI50 (UO-31): > 100 µM (inactive)
- GI50 (SN12C): > 100 µM (inactive)
- GI50 (M14): > 100 µM (inactive)
- GI50 (SF-295): > 100 µM (inactive)
- GI50 (786-0): > 100 µM (inactive)
- GI50 (KM12): > 100 µM (inactive)
- GI50 (OVCAR-5): > 100 µM (inactive)

Compound: Nc1c(S(=O)(=O)O)cc(Nc2cccc(S(N)(=O)=O)c2)c2c1C(=O)c1ccccc1C2=O
- GI50 (HOP-62): 23.4 µM (inactive)
- GI50 (LOX IMVI): 43.8 µM (inactive)
- GI50 (NCI-H522): 57.8 µM (inactive)
- GI50 (SF-268): > 100 µM (inactive)
- GI50 (ACHN): > 100 µM (inactive)
- GI50 (SNB-19): > 100 µM (inactive)
- GI50 (CAKI-1): > 100 µM (inactive)
- GI50 (HCT-15): 84.5 µM
- GI50 (UACC-257): 54.2 µM (inactive)
- GI50 (RPMI-8226): > 100 µM (inactive)
- GI50 (Malme-3M): 36.5 µM (inactive)
- GI50 (MDA-N): 20.3 µM (inactive)
- GI50 (UO-31): 97.3 µM (inactive)
- GI50 (SN12C): > 100 µM (inactive)
- GI50 (M14): 50.6 µM (inactive)
- GI50 (SF-295): 49.7 µM (inactive)
- GI50 (786-0): 62.5 µM (inactive)
- GI50 (KM12): 71.6 µM (inactive)
- GI50 (OVCAR-5): > 100 µM (inactive)
